Results published in patent US11857535B2, “Methods of treating mutant lymphomas” (Kymera Therapeutics, Inc., priority 2020, dated 2024).
Where two headings read alike, the source gives them in different places.

Columns and labels:
[1] = Compound exposure (PK) in plasma, spleen and tumor of OCI-Ly10 xenograph mice; assay type: in vivo, mouse
Method: (§1) At termination: At pre-determined time points based on study design, animals were humanely sacrificed by CO2. Blood was obtained by cardiac puncture for isolation of plasma, any residual tumor was removed and divided in 2 portions, 1 (minimal) for terminal compound exposure and 1 to determine IRAK4 and actin. Compound was determined in tumor and plasma using LC/MS with calibrated standards.

IRAK4 = target: T1, IRAK4 (Homo sapiens, UniProt Q9NWZ3); assay: IRAK4 degradation in OCI-LY10 xenograft tumors (UPLC-MS/MS, tumor PD); assay type: in vivo; conditions: for IRAK4 (% Deg): tumor PD, after 5d dosing
T1 construct: endogenous in cells; host or cells: OCI-Ly10
T1 sequence (Q9NWZ3 1-460): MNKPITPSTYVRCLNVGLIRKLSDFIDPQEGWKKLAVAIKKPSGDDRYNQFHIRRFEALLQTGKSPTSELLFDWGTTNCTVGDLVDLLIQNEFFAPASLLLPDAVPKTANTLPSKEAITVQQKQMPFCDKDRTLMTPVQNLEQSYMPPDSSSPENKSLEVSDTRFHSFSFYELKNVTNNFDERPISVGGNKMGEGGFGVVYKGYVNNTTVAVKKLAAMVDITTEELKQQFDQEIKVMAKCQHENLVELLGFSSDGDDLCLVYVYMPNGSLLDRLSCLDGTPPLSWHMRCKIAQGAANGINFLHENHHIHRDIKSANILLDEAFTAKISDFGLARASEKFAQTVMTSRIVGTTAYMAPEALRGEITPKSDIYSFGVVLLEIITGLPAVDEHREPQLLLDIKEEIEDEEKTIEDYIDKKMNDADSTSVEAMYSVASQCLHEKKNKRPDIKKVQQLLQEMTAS
Method: as §1
Interleukin-1 receptor-associated kinase 4 (IRAK4) was quantified in human OCI-LY10 xenograft tumors, together with mouse splenocytes and peripheral blood mononuclear cells (PBMCs), by ultra-performance liquid chromatography-tandem mass spectrometry (UPLC-MS/MS). The concentrations of IRAK4 were normalized by the concentrations of actin in the respective samples. The tumors, splenocytes and PBMCs were lysed in tissue protein extraction reagent (T-PER, ThermoFisher). The samples were centrifuged at 10,000 rpm for 10 minutes. The supernatant (cell lysate) was transferred to another tube. The cell lysates were denatured, reduced, and alkylated with iodoacetamide. The alkylated samples were treated with trypsin to generate the IRAK4 peptide LAVAIK and the actin peptide GYSFTTTAER. These peptides are unique and specific to IRAK4 and actin, respectively, in human, rat and mouse cells and tissues due to sequence conservation between these species.
Signature peptide concentrations were quantitated using a sensitive and specific targeted LC-MS/MS method. Corresponding mass-shifted, stable isotope-labeled peptides (LAV(d8)AIK and GYSF(d8)TTTAE(d6)R) were used as internal standards (ISs). Calibration standards and were prepared fresh on the day of analysis by diluting synthetic LAVAIK and […] peptides into 0.1% formic acid in 90/10 water acetonitrile (v/v). The standards and study samples) were aliquoted into a 96-well plate and mixed with IS spiking solution. The sample plate was covered with heating foil.
Signature peptide levels (LAVAIK, GYSFTTTAER) were quantified by UPLC-MS/MS. Injections were made using a Shimadzu ultra performance liquid chromatograph (UPLC) platform. Mobile phase A was 0.1% formic acid in water. Mobile phase B was 0.1% formic acid in 90:10 acetonitrile/water (v/v). A SCIEX TripleTOF 6600 LC-MS/MS system was used for the detection and quantitation of analytes. The intensities of the analytes and ISs were determined by integration of extracted ion peak areas using Analyst and MultiQuant 3.0 software. Calibration curves were prepared by plotting the analyte to IS peak area ratio vs. concentration. The model for the calibration curves was linear with 1/x^2 weighting. […] Measured peptide levels were corrected for sample work up and converted to actual protein concentrations in ng/mg total protein of cell lysate. […]

[2] = C.B. 17 SCID, mouse, plasma, 10 mg/kg, 10 mpk PO

**Q.** For `CC(C)(O)c1cc2nc([C@H]3CC[C@H](CN4CC5(CC(CCNc6cccc7c6C(=O)N(C6CCC(=O)NC6=O)C7=O)C5)C4)CC3)sc2cc1NC(=O)c1cccc(C(F)(F)F)n1` (stereo partly drawn) [Compound A, N-(2-((1r,4r)-4-((6-(2-((2-(2,6-dioxopiperidin-3-yl)-1,3-dioxoisoindolin-4-yl)amino)ethyl)-2-azaspiro[3.3]heptan-2-yl)methyl)cyclohexyl)-5-(2-hydroxypropan-2-yl)benzo[d]thiazol-6-yl)-6-(trifluoromethyl)picolinamide], which F ([1]; 10 mpk PO) is on record?
**A.** 19.0%

**Q.** What about the AUC(0-t) [1, 2] of the same compound?
**A.** 2.83 µM·h

**Q.** And the Cmax [1, 2]?
**A.** 180 nM

**Q.** What about the Tmax [1, 2] of the same compound?
**A.** 8 h

**Q.** And the half-life [1, 2]?
**A.** 9.35 h

**Q.** What about the concentration at 24 h ([1]; C.B. 17 SCID, mouse, plasma, 3 mpk, after 5d dosing, read-out: Plasma C24 h) of the same compound?
**A.** 10 nM

**Q.** What about the concentration at 24 h ([1]; C.B. 17 SCID, mouse, plasma, 10 mpk PO, read-out: C24 h) of the same compound?
**A.** 55 nM

**Q.** What about the concentration at 24 h ([1]; C.B. 17 SCID, mouse, plasma, 10 mpk, after 5d dosing, read-out: Plasma C24 h) of the same compound?
**A.** 80 nM

**Q.** And the concentration at 24 h ([1]; C.B. 17 SCID, mouse, plasma, 30 mpk, after 5d dosing, read-out: Plasma C24 h)?
**A.** 640 nM

**Q.** What about the concentration at 24 h ([1]; C.B. 17 SCID, mouse, plasma, based on either a 3 mpk or 10 mpk dose, read-out: Target exposure for efficacy in OCI-Ly10: steady state C24h) of the same compound?
**A.** 10 to 80 nM

**Q.** What about the concentration at 24 h ([1]; C.B. 17 SCID, mouse, spleen, 3 mpk, after 5d dosing, read-out: Spleen C24 h) of the same compound?
**A.** 500 nM

**Q.** What about the concentration at 24 h ([1]; C.B. 17 SCID, mouse, spleen, 10 mpk, after 5d dosing, read-out: Spleen C24 h) of the same compound?
**A.** 4100 nM

**Q.** And the concentration at 24 h ([1]; C.B. 17 SCID, mouse, spleen, 30 mpk, after 5d dosing, read-out: Spleen C24 h)?
**A.** 59000 nM

**Q.** What about the concentration at 24 h ([1]; C.B. 17 SCID, mouse, tumor, 3 mpk, after 5d dosing, read-out: Tumor C24 h) of the same compound?
**A.** 430 nM

**Q.** What about the concentration at 24 h ([1]; C.B. 17 SCID, mouse, tumor, 10 mpk, after 5d dosing, read-out: Tumor C24 h) of the same compound?
**A.** 4200 nM

**Q.** What about the concentration at 24 h ([1]; C.B. 17 SCID, mouse, tumor, 30 mpk, after 5d dosing, read-out: Tumor C24 h) of the same compound?
**A.** 64000 nM

**Q.** What about the “tissue exposure relative to plasma” value ([1]; single dose, FIG. 4) of the same compound?
**A.** high tissue exposure relative to plasma

**Q.** What about the “tumor PD effect” value (IRAK4; following a single dose, FIG. 4) of the same compound?
**A.** sustained PD effect

**Q.** What about the “IRAK4 (% Deg)” value (IRAK4; 3 mpk) of the same compound?
**A.** 16%

**Q.** What about the “IRAK4 (% Deg)” value (IRAK4; 10 mpk) of the same compound?
**A.** 75%

**Q.** And the “IRAK4 (% Deg)” value (IRAK4; 30 mpk)?
**A.** 83%
